Assays:
[1] = test system: wild type and APP/PS1-21 mice; conditions: cited from earlier work
3xTg mouse model = conditions: prolonged JQ1 treatment; cited from earlier work
microglia = assay: Microglia depletion by PLX in wild type mice; conditions: mouse, in vivo
Text: These models both have strong inflammatory components to their pathology; however it is important to understand the mechanism by which IBET858 improves symptoms. If the pathology is driven by microglial-mediated inflammation, it was hypothesized that depleting microglia from the brain should prevent neuronal degeneration and memory deficits as well. Therefore a pharmacological approach was used to deplete microglia in vivo by inhibiting the colony stimulating factor receptor 1 (CSF1R) which is required for microglial survival and kills 99% of microglia in one week in wild type mice. Elmore et al., “Colony-Stimulating Factor 1 Receptor Signaling is Necessary for Microglia Viability, Unmasking a Microglia Progenitor Cell in the Adult Brain,” Neuron 82:380-397 (2014), which is hereby incorporated by reference in its entirety.
First, the PLX5622-mediated mediated reduction in microglia numbers is not sufficient to reduce inflammatory gene expression to the level that not only allows neuronal survival but also normal function. Second, while IBET858 clearly dampens microglia-mediated inflammation, its neuroprotective effect cannot be solely attributed to microglia and may in fact be a combinatorial effect on other cell types in the brain.

primary cortical neurons [2] = assay: Neuronal longevity in primary cortical neuron culture (LDH, propidium iodide, cleaved caspase 3); type: cell-based, mouse; conditions: PLX5622 together with IBET858
Text: Primary Cortical Neuron Culture. Embryonic day 18 (E18) timed-pregnant female mice were anesthetized with CO2 and sacrificed by cervical dislocation. In a dissection hood, 24-26 embryos per experiment were collected through an incision of the mother's abdomen, taken out of the amniotic sacs and decapitated in ice cold Hank's Balanced Salt Solution (HBSS). Using fine scissors and forceps, brains were rapidly dissected and the cortex cleared from meninges and isolated under a dissection microscope. Cortices were collected in ice cold HBSS and kept on ice until all embryos had been dissected. In a tissue culture hood, HBSS was removed and the cortex tissue digested by 0.25% Trypsin-EDTA for 12 minutes at 37° C., followed by DNase1 treatment for 10 minutes at 37° C. The tissue was dissociated by serial trituration with a 25 ml serological pipette, followed by trituration with 10 ml and 5 ml serological pipettes. Cell suspension was washed once with DMEM medium, supplemented with 10% FBS and 1% penicillin/streptomycin and passed through a […] cell strainer before counted on a hemocytometer. Single cells were seeded on poly-D-lysine (0.1 mg ml-1) coated wells at a density of 1×10^6 cells per well on a 12-well plate. Cells were grown in Neurobasal medium, complemented with B27 supplement, N2 supplement, and 0.5 mM L-glutamine and maintained at 37° C. in 5% CO2 for 1 week. Cultures were treated with DMSO (0.2%), I-BET858 (1 μM, 0.2% DMSO), BDNF (50 ng/ml), or BDNF+I-BET858 for 2 and 12 h on day 7 in vitro. Cultures were washed with phosphate-buffered saline (PBS) on ice and processed for RNA isolation using TRIzol/Chloroform extraction.
LDH Assay. LDH activity was measured using the Pierce LDH Cytotoxicity Assay Kit. Culture media was incubated with an equal volume of LDH master mix and incubated for 30 minutes at room temperature in the dark. After, the same volume of stop reagent was added and the absorbance was measured at 490 and 680 nm. Maximum LDH measurements were obtained by adding lysis buffer to release the total amount of LDH in the sample. LDH release is calculated as a percent of the maximum.
Propidium Iodide Assay. Propidium iodide (1 mg/ml, Life Technologies #P3566) was added to each culture well at a final concentration of 0.5 μg/ml. Cultures were incubated for 30 minutes at 37 degrees then washed with PBS. Cells were then fixed with 4% paraformaldehyde in PBS for 15 minutes at room temperature. After fixation, cells were washed with PBS and then mounted using mounting media containing DAPI.
In order to understand the effect of chronic BET inhibition on neuronal survival, primary cortical mouse neurons were cultured in the presence or absence of the brain permeable BET inhibitor IBET858 (1 μM). To quantify cell death over time, the levels of lactate dehydrogenase (LDH) were measured in culture media which is presumably released during cell death as the membranes become permeable. […] The observed decrease in LDH activity after BET inhibition occurs in a dose-dependent manner. LDH activity, which is an indirect measure of cell death, may be affected by other factors such as changes in metabolism or expression of the LDH genes. Therefore in order to confirm these findings, propidium iodide (PI) staining was used to directly quantify the number of dead neurons over time. This membrane impermeable dye increases in fluorescence 20-30 fold after intercalating DNA265. […] To give context to the magnitude of this effect on survival, this experiment was repeated with a direct comparison to the mTOR inhibitor, rapamycin (20 nM).

CK-p25 mice = assay: p25 (CK-p25) mouse model of Alzheimer's disease; type: in vivo
primary cortical neurons [3] = assay: Polar metabolite mass spectrometry in primary cortical neurons; type: cell-based, mouse; conditions: acute exposure 24 h, 50 nM
Procedure: Mass Spectrometry. Cell culture plates (2e6 cells per well n=7-8 per group) were washed with 75 mM Ammonium bicarbonate, pH 7.4, warmed to 37 degrees. Plates were quenched on liquid nitrogen for 10 seconds and then placed on dry ice. 1 ml of 70% Ethanol in MS-grade water was warmed to 75 degrees and added to each well. Plates were incubated in a 75 degree water bath for 3 minutes, shaking gently every minute. After 3 minutes, plates were placed on dry ice and once cooled, supernatants were lyophilized using the speed vacuum and stored at −80 degrees. Samples were shipped on dry ice to Cellzome who processed the samples for mass spectrometry and performed the initial analysis annotating metabolites. A semi-quantitative approach was used which determines the metabolite levels relative to a control rather than absolute concentrations. All detected ions were used for statistical analysis regardless of how many samples they were detected. This allows for the identification of low-abundant metabolites that may be present in only a subset of samples.
If IBET858 is indeed decreasing metabolism as indicated, comprehensive metabolic changes after BET inhibition should be observed. Therefore, an unbiased analysis of polar metabolites via mass spectrometry was employed (FIGS. 12A-12C). Accordingly, the levels of 100-150 unique metabolites are changed by chronic BET inhibition in primary cortical neurons.

BET proteins = conditions: cited from earlier work

Cc1sc2c(c1C)C(c1ccc(Cl)cc1)=N[C@@H](CC(=O)OC(C)(C)C)c1nnc(C)n1-2 [JQ1]
cognitive deficits in APP/PS1-21 mouse model ([1]; APP/PS1-21): rescued cognitive deficits
memory, fear conditioning paradigm in wild type mice ([1]; wild type mice): enhanced memory
level of phosphorylated tau (3xTg mouse model): decreased
memory and learning deficits (3xTg mouse model): did not have any effect

COc1ncc(F)cc1CNc1ccc(Cc2c[nH]c3ncc(C)cc23)c(F)n1 [PLX5622]
microglia after PLX in wild type mice (microglia): fully depleted
neuronal longevity after IBET858 on pharmacological depletion of microglia (primary cortical neurons [2]): did not alter longevity
number of microglia compared to wild-type controls (CK-p25 mice; CK-p25 mice treated with PLX): twice the number of microglia
contextual recall (memory deficits) (CK-p25 mice; PLX5622): made contextual recall worse
neuronal and synapse loss (CK-p25 mice; PLX5622): prevented neuronal and synapse loss

C=C(C)[C@H]1Cc2c(ccc3c2O[C@@H]2COc4cc(OC)c(OC)cc4[C@@H]2C3=O)O1 [Rotenone, reference compound]
metabolites changed (primary cortical neurons [3]): 300-500 metabolites

Oc1ccc(C=Cc2cc(O)cc(O)c2)cc1 [Resveratrol, resveratrol]
inhibition of BET proteins (BET proteins): weakly inhibit

Reference: US12691124B2, “Methods of controlling and improving brain health” (ICAHN SCHOOL OF MEDICINE AT MOUNT SINAI, priority 2019, dated 2026)
